19 compounds from ChEMBL document CHEMBL1158522, “Design, synthesis, and pharmacological evaluation of phenoxy pyridyl derivatives as dual norepinephrine reuptake inhibitors and 5-HT1A partial agonists” (Bioorg Med Chem Lett, 2010) can be followed below.

Data set [1] has as its target T1, 5-hydroxytryptamine receptor 1A (Homo sapiens, UniProt P08908).
T1 sequence (P08908 whole entry): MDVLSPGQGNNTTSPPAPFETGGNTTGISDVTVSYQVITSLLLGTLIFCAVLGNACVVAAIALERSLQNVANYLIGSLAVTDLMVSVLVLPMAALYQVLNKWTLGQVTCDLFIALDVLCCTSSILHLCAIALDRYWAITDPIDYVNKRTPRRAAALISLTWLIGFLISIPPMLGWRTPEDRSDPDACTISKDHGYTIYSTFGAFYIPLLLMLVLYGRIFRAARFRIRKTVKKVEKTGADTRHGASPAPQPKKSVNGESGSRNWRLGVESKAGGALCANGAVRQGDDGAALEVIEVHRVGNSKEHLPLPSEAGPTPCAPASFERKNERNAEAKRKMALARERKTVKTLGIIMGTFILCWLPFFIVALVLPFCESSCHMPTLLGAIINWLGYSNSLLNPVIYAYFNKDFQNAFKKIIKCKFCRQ
The data set is described as follows: Displacement of [3H]8-OH-DPAT from human cloned 5HT1A receptor by filtration techniques.

Data set [2] addresses T2, Sodium-dependent serotonin transporter (Homo sapiens, UniProt P31645). The data set is described as follows: Displacement of [3H]citalopram from human SERT expressed in HEK293 cells by scintillation proximity assay. The data set is classed as cell-based. Background: Displacement assays read how much labelled ligand stays bound in the presence of the test substance.
Data set [3] deals with T3, Sodium-dependent noradrenaline transporter (Homo sapiens, UniProt P23975). The experiment in a line: Displacement of [3H]nisoxetine from human NET expressed in HEK293 cells by scintillation proximity assay. Type of data set: cell-based.
Data set [4] addresses T4, Sodium-dependent dopamine transporter (Homo sapiens, UniProt Q01959). The experiment in a line: Displacement of [3H]WIN-35428 from human DAT expressed in HEK293 cells by scintillation proximity assay. The data set is classed as cell-based.
The target of data set [5] is T4, Sodium-dependent dopamine transporter. The experiment in a line: Agonist activity at DAT. Type of data set: functional.
The nature of data set [6]: Ratio of EC50 for SERT to EC50 for NET.
Data set [7] has as its target T2, Sodium-dependent serotonin transporter. The experiment in a line: Agonist activity at SERT. Type of data set: functional.
In data set [8] the target is T1, 5-hydroxytryptamine receptor 1A. The data set is described as follows: Agonist activity at 5HT1A receptor by GTPgammaS assay. The data set is classed as functional.
Data set [9] deals with T5, 5-hydroxytryptamine receptor 1A (Homo sapiens) (UniProt P08908).
T5 sequence (whole entry): T1 sequence (P08908 whole entry)
The experiment in a line: Intrinsic activity at 5HT1A receptor by GTPgammaS assay. Type of data set: functional.

Data set [10] deals with T3, Sodium-dependent noradrenaline transporter. The experiment in a line: Agonist activity at NET. The data set is classed as functional.
Data set [11] deals with Rattus norvegicus. The experiment in a line: Ex vivo 5HT1A receptor occupancy in rat brain at 10 mg/kg, sc after 1 hr. Type of data set: functional. Particulars: route subcutaneous.
The nature of data set [12]: Plasma concentration rat at 10 mg/kg, sc after 1 hr. Also noted: dose 10 mg/kg, route subcutaneous. The data set is classed as ADME, organism-based.
The test system of data set [13] is Rattus norvegicus. The data set is described as follows: Ex vivo NET occupancy in rat brain at 10 mg/kg, sc after 1 hr. The data set is classed as functional. Particulars: route subcutaneous.

T4 sequence (Q01959 whole entry): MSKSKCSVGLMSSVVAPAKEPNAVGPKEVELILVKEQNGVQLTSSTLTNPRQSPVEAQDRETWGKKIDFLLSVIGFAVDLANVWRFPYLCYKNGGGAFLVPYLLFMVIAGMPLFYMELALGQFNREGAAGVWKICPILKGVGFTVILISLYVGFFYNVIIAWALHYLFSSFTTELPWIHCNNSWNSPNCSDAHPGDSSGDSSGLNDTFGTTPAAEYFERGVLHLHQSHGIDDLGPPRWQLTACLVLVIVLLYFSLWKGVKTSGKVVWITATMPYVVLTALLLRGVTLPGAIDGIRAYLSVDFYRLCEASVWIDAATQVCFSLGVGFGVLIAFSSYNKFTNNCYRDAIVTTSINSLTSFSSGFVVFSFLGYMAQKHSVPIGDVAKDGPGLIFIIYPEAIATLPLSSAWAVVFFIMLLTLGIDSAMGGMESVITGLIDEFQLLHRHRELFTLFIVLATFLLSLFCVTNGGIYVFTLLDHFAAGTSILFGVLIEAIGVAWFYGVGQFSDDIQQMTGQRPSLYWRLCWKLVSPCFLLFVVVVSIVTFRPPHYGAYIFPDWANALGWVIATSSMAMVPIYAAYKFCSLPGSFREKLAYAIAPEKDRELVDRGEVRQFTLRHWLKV
T3 sequence (P23975 whole entry): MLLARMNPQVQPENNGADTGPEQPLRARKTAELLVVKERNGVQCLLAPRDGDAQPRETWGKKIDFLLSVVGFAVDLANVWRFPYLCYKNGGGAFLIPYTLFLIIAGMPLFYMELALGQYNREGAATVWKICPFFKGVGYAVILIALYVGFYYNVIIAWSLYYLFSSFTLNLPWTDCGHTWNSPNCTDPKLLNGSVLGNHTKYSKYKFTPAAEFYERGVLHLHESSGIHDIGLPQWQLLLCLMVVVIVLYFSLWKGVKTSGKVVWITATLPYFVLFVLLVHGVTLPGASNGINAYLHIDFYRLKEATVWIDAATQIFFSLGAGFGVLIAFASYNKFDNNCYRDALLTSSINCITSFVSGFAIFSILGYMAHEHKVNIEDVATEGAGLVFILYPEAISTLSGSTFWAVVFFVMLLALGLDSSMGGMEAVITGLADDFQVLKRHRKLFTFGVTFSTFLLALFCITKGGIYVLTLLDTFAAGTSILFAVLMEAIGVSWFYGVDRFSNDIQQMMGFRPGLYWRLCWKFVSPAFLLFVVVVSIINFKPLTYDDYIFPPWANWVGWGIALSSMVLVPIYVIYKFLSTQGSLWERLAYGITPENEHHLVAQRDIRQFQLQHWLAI
T2 sequence (P31645 whole entry): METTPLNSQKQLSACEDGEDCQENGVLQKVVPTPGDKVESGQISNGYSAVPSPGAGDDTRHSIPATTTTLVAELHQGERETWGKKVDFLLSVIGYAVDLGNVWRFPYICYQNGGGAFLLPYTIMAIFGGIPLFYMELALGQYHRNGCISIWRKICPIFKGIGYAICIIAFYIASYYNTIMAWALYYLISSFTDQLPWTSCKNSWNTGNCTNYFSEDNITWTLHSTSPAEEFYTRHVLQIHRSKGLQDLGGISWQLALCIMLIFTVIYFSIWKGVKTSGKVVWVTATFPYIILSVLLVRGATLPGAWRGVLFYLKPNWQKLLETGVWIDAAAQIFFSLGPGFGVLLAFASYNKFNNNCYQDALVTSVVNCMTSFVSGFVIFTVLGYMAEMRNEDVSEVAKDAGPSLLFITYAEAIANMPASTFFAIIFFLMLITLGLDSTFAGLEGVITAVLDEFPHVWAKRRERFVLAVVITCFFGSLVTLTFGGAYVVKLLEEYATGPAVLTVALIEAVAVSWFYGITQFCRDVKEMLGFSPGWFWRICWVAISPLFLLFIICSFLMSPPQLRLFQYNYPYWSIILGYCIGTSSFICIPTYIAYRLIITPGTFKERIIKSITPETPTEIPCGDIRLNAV

As usually defined, the Ki is the equilibrium dissociation constant of an inhibitor or competing ligand from its target. Higher therefore signals weaker binding. For the compound `Clc1ccccc1Oc1ncccc1N1CCNCC1`, the inhibition constant Ki in [1] was 4.5 nM; in data set [2] it was above 4710 nM; in data set [3] it was 747 nM; in data set [4], above 6.32 µM.
Usually EC50 stands for the concentration giving half of the maximal effect. High values mean a less potent agent, low ones a more potent agent. On to `Fc1ccccc1Oc1cccc(F)c1C1CCNCC1`, for which the inhibitory constant (Ki) stood at 4.6 nM in [1], 1260 nM in data set [2], 32 nM in data set [3] and 0.278 µM in data set [4]. Moreover, the concentration for a half-maximal effect (EC50) in [5] amounted to 0.498 µM; in data set [7], 915 nM; in data set [8] it was 341 nM; in [10], 28 nM. Moreover, the Ratio EC50 in data set [6] is 33. Further, the Intrinsic activity in data set [9] stood at 84%.
For `Fc1ccc(Cl)c(Oc2ncccc2C2CCNCC2)c1`, the Ki was 17 nM in data set [1], 251 nM in data set [2], 247 nM in data set [3] and above 6.22 µM in data set [4].
The matching figures for `Clc1ccc(Oc2ncccc2C2CCNCC2)c(Cl)c1`: 37 nM, 2.7 nM, 413 nM and above 5.5 µM.
The matching figures for `COc1cccc(F)c1Oc1ncccc1C1CCNCC1`: 24 nM, 887 nM, 276 nM and 6.41 µM.
For `Fc1cccc(Cl)c1Oc1ncccc1C1CCNCC1`, the Activity in the data set with Rattus norvegicus [11] stood at 37.4%; in the data set on Rattus norvegicus [13], 75.3%. The Ki in [1] was 11 nM; in data set [2], 194 nM; in [3], 33 nM; in data set [4] it was above 6.18 µM. Moreover, the EC50 in data set [5] amounted to 6.88 µM; in [7], 409 nM; in data set [8], 89 nM; in [10], 9 nM. Moreover, in data set [6], the Ratio EC50 was determined as 45. This compound gave a concentration at 1 h in data set [12] of 777 ng/mL. Moreover, the Intrinsic activity in data set [9] came to 37%.
As for `Clc1cccc(Oc2ncccc2C2CCNCC2)c1Cl`, the Ki in [1] worked out at 37 nM; in [2], 2 nM; in [3], 25 nM; in data set [4], 0.31 µM.
In the same order, the values of `Cc1ccc(Oc2ncccc2C2CCNCC2)c(F)c1` are 5.5 nM, 36 nM, 921 nM and above 6.14 µM.
Regarding `COc1ccccc1Oc1ncccc1C1CCNCC1`, the Ki in data set [1] came out at 92 nM; in data set [2] it was 610 nM; in [3] it was 292 nM; in data set [4], 6.41 µM.
Consider `Cc1cccc(F)c1Oc1ncccc1C1CCNCC1`, for which the inhibition constant (Ki) is 10 nM in data set [1], 102 nM in data set [2], 27 nM in data set [3] and above 6.37 µM in data set [4].
With `Fc1cccc(F)c1Oc1ncccc1C1CCNCC1`, the inhibitory constant (Ki) in data set [1] was 7.2 nM; in data set [2], 1850 nM; in data set [4] it was above 6.63 µM.
For the compound `Fc1ccccc1Oc1ncccc1C1CCNCC1`, the inhibitory constant (Ki) is 13 nM in data set [1], 728 nM in data set [2], 536 nM in data set [3] and above 6.18 µM in data set [4].
In the same order, the values of `Clc1ccccc1Oc1ncccc1C1CCNCC1` are 16 nM, 57 nM, 74 nM and 5.15 µM.
Regarding `Cc1ccccc1Oc1ncccc1C1CCNCC1`, the Ki was 60 nM in [1], 292 nM in [2], 330 nM in data set [3] and above 6.17 µM in data set [4].
For `Fc1cccc(Oc2ncccc2C2CCNCC2)c1F`, the Ki in [1] was 173 nM; in data set [2], 109 nM; in data set [3], 1810 nM; in data set [4], above 6.65 µM.
With `Fc1ccc(Oc2ncccc2C2CCNCC2)c(F)c1`, the inhibition constant Ki in [1] worked out at 29 nM; in data set [2] it was 30 nM; in data set [3], 143 nM; in data set [4], 2.59 µM.
The matching figures for `Fc1cccc(Cl)c1Oc1ncccc1N1CCNCC1`: 3.7 nM, above 4710 nM, 663 nM and above 6.32 µM.
The matching figures for `FC(F)(F)c1ccccc1Oc1ncccc1C1CCNCC1`: 71 nM, 203 nM, 140 nM and above 6.65 µM.
Consider `c1ccc(Oc2ncccc2C2CCNCC2)cc1`, for which the inhibitory constant (Ki) in data set [1] was determined as 101 nM; in [3], 2440 nM; in data set [4], 4.31 µM.
